These results are taken from patent publication US12110305B2, “Prodrugs of phosphonamide nucleotide analogues and their pharmaceutical use” (priority 2020, dated 2024).

Structures are written as SMILES. pEC50: −log10 of the molar value.

By pEC50 is commonly meant −log10 of the EC50, conventionally taken in molar units.

The subject of the first assay is HIV-1 (IIIB). The experiment in a line: Antiviral (HIV) assay in MT-4 cells. It counts as cell-based. The settings on record: HIV-1 IIIB in MT-4 cells, 5 days incubation, Cell Titer Glo; average of at least two independent experiments; read-out: MT4 HIV EC50. How it is done:
Example 104: Antiviral (HIV) Assay in MT-4 Cells
Compounds were tested in a high-throughput 384-well assay format for their ability to inhibit the replication of HIV-1 (IIIB) in MT-4 cells. Compounds were serially diluted (1:3) in DMSO on 384-well polypropylene plates and further diluted 200-fold into complete RPMI media (10% FBS, 1% P/S) using the Biotek Micro Flow and Labcyte ECHO acoustic dispenser. Each plate contained up to 8 test compounds, with negative (no drug) and positive (5 μM AZT) controls. MT-4 cells were pre-treated with 10 μL of either RPMI (mock-infected) or a fresh 1:250 dilution of HIV-1 IIIB concentrated virus stock. Infected and uninfected MT-4 cells were further diluted in complete RPMI media and added to each plate using a Micro Flow dispenser. After 5 days incubation in a humidified and temperature-controlled incubator (37° C.), Cell Titer Glo (Promega) was added to the assay plates and chemiluminescence read using an Envision plate-reader. EC50 values were defined as the compound concentration that causes a 50% decrease in luminescence signal and were calculated using a sigmoidal dose-response model to generate curve fits and are shown in Table 1.
For orientation: Cellular ATP, detected with luciferase, serves as a proxy for viable cell number.
As to `CCC(CC)COC(=O)C(C)(C)N[P@](=O)(CO[C@H](C)Cn1cnc2c(N)ncnc21)NC1(C(=O)OCC(CC)CC)CC1` [Example 71, 2-Ethylbutyl 1-(((R)-((((R)-1-(6-amino-9H-purin-9-yl)propan-2-yl)oxy)methyl)((1-(2-ethylbutoxy)-2-methyl-1-oxopropan-2-l)amino)phosphoryl)amino)cyclopropane-1-carboxylate], the pEC50 is 6.63.

Staying with this assay, now noted: Human immunodeficiency virus 1, MT4, 120 h; HIV-1 IIIB in MT-4 cells, 5 days incubation, Cell Titer Glo; average of at least two independent experiments.
In the case of `C[C@H](Cn1cnc2c(N)ncnc21)OCP(=O)(NC(C)(C)C(=O)OCCCCC(F)(F)F)NC(C)(C)C(=O)OCCCCC(F)(F)F` [Example 25, Bis(5,5,5-trifluoropentyl) 2,2′-(((((1-(6-amino-9H-purin-9-yl)propan-2-yl)oxy)methyl)phosphoryl)bis(azanediyl))(R)-bis(2-methylpropanoate)], the pEC50 was 8.10.
As for `CCCCOC(=O)C(C)(C)NP(=O)(CO[C@H](C)Cn1cnc2c(N)ncnc21)NC(C)(C)C(=O)OCCCC` [Example 38, Dibutyl 2,2′-(((((1-(6-amino-9H-purin-9-yl)propan-2-yl)oxy)methyl)phosphoryl)bis(azanediyl))(R)-bis(2-methylpropanoate)], the pEC50 was 8.00.
`C[C@H](Cn1cnc2c(N)ncnc21)OCP(=O)(NC(C)(C)C(=O)OC1CCC2(CCCC2)CC1)NC(C)(C)C(=O)OC1CCC2(CCCC2)CC1` (stereo partly drawn) [Example 61, Di(spiro[4.5]decan-8-yl) 2,2′-(((((1-(6-amino-9H-purin-9-yl)propan-2-yl)oxy)methyl)phosphoryl)bis(azanediyl))(R)-bis(2-methylpropanoate)]: the pEC50 is 7.55.
`C[C@H](Cn1cnc2c(N)ncnc21)OCP(=O)(NC(C)(C)C(=O)OCCC12CC(C1)C2)NC(C)(C)C(=O)OCCC12CC(C1)C2` [Example 62, Bis(2-(bicyclo[1.1.1]pentan-1-yl)ethyl) 2,2′-(((((1-(6-amino-9H-purin-9-yl)propan-2-yl)oxy)methyl)phosphoryl)bis(azanediyl))(R)-bis(2-methylpropanoate)] showed a negative-log EC50 (pEC50) of 8.15.
On the same count and under the same terms, the result for `C[C@H](Cn1cnc2c(N)ncnc21)OCP(=O)(NC(C)(C)C(=O)OCC1CC2(C1)CC1(CCC1)C2)NC(C)(C)C(=O)OCC1CC2(C1)CC1(CCC1)C2` [Example 57, Bis(dispiro[3.1.3^6.1^4]decan-2-ylmethyl) 2,2′-(((((1-(6-amino-9H-purin-9-yl)propan-2-yl)oxy)methyl)phosphoryl)bis(azanediyl))(R)-bis(2-methylpropanoate)] reads 7.64; that for `C[C@H](Cn1cnc2c(N)ncnc21)OCP(=O)(NC(C)(C)C(=O)OC1CC(C2CCC2)C1)NC(C)(C)C(=O)OC1CC(C2CCC2)C1` (stereo partly drawn) [Example 90, Di([1,1′-bi(cyclobutan)]-3-yl) 2,2′-(((((1-(6-amino-9H-purin-9-yl)propan-2-yl)oxy)methyl)phosphoryl)bis(azanediyl))(R)-bis(2-methylpropanoate)], 8.15.
For the molecule `C[C@H](Cn1cnc2c(N)ncnc21)OCP(=O)(NC(C)(C)C(=O)OCC12CC3CC(CC(C3)C1)C2)NC(C)(C)C(=O)OCC12CC3CC(CC(C3)C1)C2` [Example 59, Bis(((1S,3S)-adamantan-1-yl)methyl) 2,2′-((((((R)-1-(6-amino-9H-purin-9-yl)propan-2-yl)oxy)methyl)phosphoryl)bis(azanediyl))bis(2-methylpropanoate)], the pEC50 is 7.33.
`C[C@H](Cn1cnc2c(N)ncnc21)OCP(=O)(NC(C)(C)C(=O)OCC1CCCC1)NC(C)(C)C(=O)OCC1CCCC1` [Example 45, Bis(cyclopentylmethyl) 2,2′-(((((1-(6-amino-9H-purin-9-yl)propan-2-yl)oxy)methyl)phosphoryl)bis(azanediyl))(R)-bis(2-methylpropanoate)]: the pEC50 is 8.52.
With `CCCCCCOC(=O)C(NP(=O)(CO[C@H](C)Cn1cnc2c(N)ncnc21)NC(C(=O)OCCCCCC)(C1CC1)C1CC1)(C1CC1)C1CC1` [Example 64, Dihexyl 2,2′-(((((1-(6-amino-9H-purin-9-yl)propan-2-yl)oxy)methyl)phosphoryl)bis(azanediyl))(R)-bis(2,2-dicyclopropylacetate)], the pEC50 is under 6.30.
Consider `C[C@H](Cn1cnc2c(N)ncnc21)OCP(=O)(NC(C)(C)C(=O)O[C@H]1C[C@@H](C(C)(C)C)C1)NC(C)(C)C(=O)O[C@H]1C[C@@H](C(C)(C)C)C1` [Example 51, Bis((1S,3S)-3-(tert-butyl)cyclobutyl) 2,2′-((((((R)-1-(6-amino-9H-purin-9-yl)propan-2-yl)oxy)methyl)phosphoryl)bis(azanediyl))bis(2-methylpropanoate)], for which the pEC50 was 8.10.
For the molecule `CCCCCCOC(=O)C(C)(C)NP(=O)(CO[C@H](C)Cn1cnc2c(NC(=O)OCCCCC)ncnc21)NC(C)(C)C(=O)OCCCCCC` [Example 32, Dihexyl 2,2′-(((((1-(6-(((pentyloxy)carbonyl)amino)-9H-purin-9-yl)propan-2-yl)oxy)methyl)phosphoryl)bis(azanediyl))(R)-bis(2-methylpropanoate)], the pEC50 is under 6.30.
Take `CCCCCCCCCCCC(=O)Nc1ncnc2c1ncn2C[C@@H](C)OCP(=O)(NC(C)(C)C(=O)OCCCCCC)NC(C)(C)C(=O)OCCCCCC` [Example 30, Dihexyl 2,2′-(((((1-(6-dodecanamido-9H-purin-9-yl)propan-2-yl)oxy)methyl)phosphoryl)bis(azanediyl))(R)-bis(2-methylpropanoate)]: the pEC50 was 7.17.
For `CC(C)CCCCOC(=O)C(C)(C)NP(=O)(CO[C@H](C)Cn1cnc2c(N)ncnc21)NC(C)(C)C(=O)OCCCCC(C)C` [Example 68, Bis(5-methylhexyl) 2,2′-(((((1-(6-amino-9H-purin-9-yl)propan-2-yl)oxy)methyl)phosphoryl)bis(azanediyl))(R)-bis(2-methylpropanoate)], the pEC50 was 8.05.
`CCCCCCOC(=O)C(C)(C)NP(=O)(CO[C@H](C)Cn1cnc2c(NC(=O)OCCOC(=O)c3ccccc3)ncnc21)NC(C)(C)C(=O)OCCCCCC` [Example 94, Dihexyl 2,2′-(((((1-(6-(((2-(benzoyloxy)ethoxy)carbonyl)amino)-9H-purin-9-yl)propan-2-yl)oxy)methyl)phosphoryl)bis(azanediyl))(R)-bis(2-methylpropanoate)] showed a pEC50 of 6.89.
Molecule `CCCCCCOC(=O)C(C)(C)NP(=O)(CO[C@H](C)Cn1cnc2c(NCc3oc(=O)oc3C)ncnc21)NC(C)(C)C(=O)OCCCCCC` [Example 82, Dihexyl 2,2′-(((((1-(6-(((5-methyl-2-oxo-1,3-dioxol-4-yl)methyl)amino)-9H-purin-9-yl)propan-2-yl)oxy)methyl)phosphoryl)bis(azanediyl))(R)-bis(2-methylpropanoate)] showed a pEC50 of 6.46.
Molecule `CCCCCCOC(=O)C(C)(C)NP(=O)(CO[C@H](C)Cn1cnc2c(NC(=O)CCC)ncnc21)NC(C)(C)C(=O)OCCCCCC` [Example 29, Dihexyl 2,2′-(((((1-(6-butyramido-9H-purin-9-yl)propan-2-yl)oxy)methyl)phosphoryl)bis(azanediyl))(R)-bis(2-methylpropanoate)] gave a pEC50 of 7.80.
In turn, `CCCCCCOC(=O)[C@@]1(NP(=O)(CO[C@H](C)Cn2cnc3c(N)ncnc32)N[C@]2(C(=O)OCCCCCC)C[C@H]2CC)C[C@H]1CC` [Example 17, Dihexyl 1,1′-((((((R)-1-(6-amino-9H-purin-9-yl)propan-2-yl)oxy)methyl)phosphoryl)bis(azanediyl))(1R,1′R,2R,2′R)-bis(2-ethylcyclopropane-1-carboxylate)] showed a pEC50 of under 6.30.
Still for that read-out and setting: the result for `CCCCCCOC(=O)C(C)(C)NP(=O)(CO[C@H](C)Cn1cnc2/c(=N\Cc3oc(=O)oc3C)n(Cc3oc(=O)oc3C)cnc21)NC(C)(C)C(=O)OCCCCCC` [Example 84, Dihexyl 2,2′-(((((1-(1-((5-methyl-2-oxo-1,3-dioxol-4-yl)methyl)-6-(((5-methyl-2-oxo-1,3-dioxol-4-yl)methyl)imino)-1,6-dihydro-9H-purin-9-yl)propan-2-yl)oxy)methyl)phosphoryl)bis(azanediyl))(R,E)-bis(2-methylpropanoate)] reads 6.64; that for `CCCCCCOC(=O)C(CC)(CC)NP(=O)(CO[C@H](C)Cn1cnc2c(N)ncnc21)NC(CC)(CC)C(=O)OCCCCCC` [Example 65, Dihexyl 2,2′-(((((1-(6-amino-9H-purin-9-yl)propan-2-yl)oxy)methyl)phosphoryl)bis(azanediyl))(R)-bis(2-ethylbutanoate)], under 6.30; that for `C[C@H](Cn1cnc2c(N)ncnc21)OCP(=O)(NC(C)(C)C(=O)O[C@H](C)C1CCCCC1)NC(C)(C)C(=O)O[C@H](C)C1CCCCC1` [Example 55, Bis((R)-1-cyclohexylethyl) 2,2′-((((((R)-1-(6-amino-9H-purin-9-yl)propan-2-yl)oxy)methyl)phosphoryl)bis(azanediyl))bis(2-methylpropanoate)], 7.00.
The molecule `C[C@H](Cn1cnc2c(N)ncnc21)OCP(=O)(NC(C)(C)C(=O)OC[C@H]1CC[C@H](C)CC1)NC(C)(C)C(=O)OC[C@H]1CC[C@H](C)CC1` [Example 91, Bis((trans-4-methylcyclohexyl)methyl) 2,2′-((((((R)-1-(6-amino-9H-purin-9-yl)propan-2-yl)oxy)methyl)phosphoryl)bis(azanediyl))bis(2-methylpropanoate)] showed a pEC50 of 8.30.
